Reference: patent publication US20250127807A1, “TREATMENT OF VAGINAL DYSBIOTIC CONDITIONS WITH ASSOCIATED ELEVATED VAGINAL CALPROTECTIN” (priority 2022, published 2025)
Blank lines part the entries; values can stand above or below the compound they belong to.

Columns and labels:
[1] = Modeling of Mn and Zn levels in vaginal fluid delivered from slow release Z2 formulation; design: species or system women
Experimental: Six women each received 3 doses of formulation Z2 separated by 48 hours. Vaginal fluid swabs were collected at t=0, 2, 4, 8, 12, 18, 24, 30, 36, and 42 hours post dose and vaginal fluid concentrations of lactoferrin and mannitol were determined. Average concentrations for the combined 18 dose administrations were obtained based on calculation of Area Under Curve for the locally estimated scatterplot smoothing (Loess) profile of lactoferrin and mannitol concentrations assuming 6 mL volume of distribution.

[2] = design: species or system women; settings: female, human, in vivo
Experimental: Elevated levels of calprotectin in BV and in L iners-dominated vaginal microbiomes sequester manganese and zinc, preventing growth of L crispatus its maintenance of a healthy vaginal microbiome. […] Six women each received 3 doses of formulation Z2 separated by 48 hours. Vaginal fluid swabs were collected at t=0, 2, 4, 8, 12, 18, 24, 30, 36, and 42 hours post dose and vaginal fluid concentrations of lactoferrin and mannitol were determined. Average concentrations for the combined 18 dose administrations were obtained based on calculation of Area Under Curve for the locally estimated scatterplot smoothing (Loess) profile of lactoferrin and mannitol concentrations assuming 6 mL volume of distribution. The average concentration of lactoferrin was 33 mg/mL and the average concentrations of mannitol was 20 mg/mL. Average concentrations of both substances correspond to 0.1 fraction or 10% of the administered dose, 300 mg lactoferrin and 195 mg mannitol per Z2 tablet respectively. The 0.1 factor was used to estimate the expected average elemental Mn concentration based on the initial dose per tablet.

Compound: [Zn] [Zn, zinc]
- predicted Cmax, fold below the concentration of Zn used in MRS media ([1]; 250 μg dose of Zn): ~5 fold
- predicted Cmax, fold above the amount of Zn that could be bound by calprotectin in BV ([1]; 250 μg dose of Zn, 95% CI of median based on 2:1 Zn/CP): ~4 fold

- average concentration as fraction of the administered dose [2]: 10%
Compound: OC[C@@H](O)[C@@H](O)[C@H](O)[C@H](O)CO [mannitol, reference compound]

Compound: [Mn+2] [Mn, manganese]
- predicted Cmax, fold below the concentration of Mn used in MRS media ([1]; 50 μg dose of Mn): ~2 fold
- predicted Cmax, fold above the amount of Mn that could be bound by calprotectin in BV ([1]; 50 μg dose of Mn, 95% CI of median 70 M based on 1:1 Mn/CP): ~2 fold
